Broadly, the Ki is a measure of affinity in units of concentration, obtained from inhibition or displacement. Low values mean a stronger hold on the target, high ones a looser hold on the target.

For the first assay, the target named is T1, hCRTH2 (Homo sapiens, UniProt Q9Y5Y4).
T1 construct: expressed in transfected cells; host or cells: HEK (human embryonic kidney) cells expressing hCRTH2
T1 sequence (Q9Y5Y4 1-395): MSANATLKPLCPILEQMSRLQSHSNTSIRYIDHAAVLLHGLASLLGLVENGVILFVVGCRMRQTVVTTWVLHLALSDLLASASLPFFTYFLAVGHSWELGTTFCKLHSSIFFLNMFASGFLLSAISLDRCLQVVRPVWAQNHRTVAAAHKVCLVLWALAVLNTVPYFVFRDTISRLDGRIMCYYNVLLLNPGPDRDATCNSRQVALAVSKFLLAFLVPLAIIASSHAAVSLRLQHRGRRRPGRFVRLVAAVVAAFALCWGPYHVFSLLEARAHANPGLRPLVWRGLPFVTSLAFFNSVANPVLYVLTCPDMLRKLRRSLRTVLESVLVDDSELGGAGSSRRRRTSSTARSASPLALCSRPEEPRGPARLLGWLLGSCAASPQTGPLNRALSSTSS
As to the kind of experiment: Radioligand Binding Assay A ([3H]PGD2 filtration binding, HEK-hCRTH2 membranes). As to conditions: Table A, rated A-D. Here is the method:
Radioligand binding assays were performed at room temperature in 50 mM Tris-HCl pH 7.4, 1 mM EDTA containing 2 mM MnCl2 and 3.0 nM [^3H]PGD2 (New England Nuclear, Boston, Mass.) (171 Ci mmol^−1), in a final volume of 0.2 ml. Competing ligands were diluted in dimethylsulfoxide (Me2SO) that was kept constant at 1% (v/v) of the final incubation volume. The reaction was initiated by the addition of 8-20 μg of membrane protein prepared from a human embryonic kidney (HEK)-hCRTH2 cell line. Total and non-specific binding were determined in the absence and the presence of 10 μM PGD2, respectively. Under these conditions, specific binding (total minus non-specific) of the radioligand to the receptor reached equilibrium within 50 min and was stable up to 180 min. The reaction was routinely conducted for 60 min at room temperature and terminated by rapid filtration through prewetted (0.3% polyethyleneimine) 96-well printed Filtermate™ (Wallac) using a Tomtec® harvester (Hamden, Conn.). After washing with cold buffer, the filter was dried for 2 minutes in microwave, and Meltilex Scintillator sheet (Wallac) was melted on for 2 min. The radioactivity was measured with Betaplate model 1205 (Wallac).
`O=C(O)CCCCc1cc2cc(C(=O)NCc3ccc(F)cc3)ccc2nc1-c1ccccc1` [Compound 2C, 6-[[[(4-fluorophenyl)methyl]amino]carbonyl]-2-phenyl-3-quinolinepentanoic acid]: the Ki lay within 2.1 to 20 nM.
Same read-out and setting: with `O=C(O)CCCCc1cc2cc(C(=O)OCc3ccccc3)ccc2nc1-c1ccccc1` [Compound 2D, 2-phenyl-6-[(phenylmethoxy)carbonyl]-3-quinolinepentanoic acid] the figure was 0.1 to 2 nM; with `O=C(O)CCCCc1nc2cc(C(=O)NCc3ccc(OC(F)(F)F)cc3)ccc2cc1-c1ccccc1` [Compound 3, 5-(3-phenyl-7-(4-(trifluoromethoxy)benzylcarbamoyl)quinolin-2-yl)pentanoic acid], 2.1 to 20 nM.
With `O=C(O)CCCCc1nc2cc(C(=O)N3CCC(c4ccccc4)CC3)ccc2cc1-c1ccccc1` [Compound 3E, 3-phenyl-7-[(4-phenyl-1-piperidinyl)carbonyl]-2-quinolinepentanoic acid], the Ki is 2.1 to 20 nM.
With `C[C@@H](NC(=O)c1ccc2cc(-c3ccccc3)c(CCCCC(=O)O)nc2c1)c1ccc(Cl)cc1` [Compound 3F, 7-[[[1(R)-(4-chlorophenyl)ethyl]amino]carbonyl]-3-phenyl-2-quinolinepentanoic acid], the inhibitory constant (Ki) fell in the range of 0.1 to 2 nM.
`C[C@H](NC(=O)c1ccc2cc(-c3ccccc3)c(CCCCC(=O)O)nc2c1)c1ccc(Cl)cc1` [Compound 3G, 7-[[[1(S)-(4-chlorophenyl)ethyl]amino]carbonyl]-3-phenyl-2-quinolinepentanoic acid] had a Ki of 2.1 to 20 nM.
`O=C(O)CCCCc1nc2cc(C(=O)N3CC[C@@H](c4ccccc4)C3)ccc2cc1-c1ccccc1` [Compound 3H, 3-phenyl-7-[(3(S)-phenyl-1-pyrrolidinyl)carbonyl]-2-quinolinepentanoic acid] returned an inhibitory constant (Ki) of 2.1 to 20 nM.
`O=C(O)CCCCc1nc2cc(C(=O)N3CCC[C@@H](c4ccccc4)C3)ccc2cc1-c1ccccc1` [Compound 3J, 3-phenyl-7-[(3(S)-phenyl-1-piperidinyl)carbonyl]-2-quinolinepentanoic acid] displayed a Ki of 20.1 to 200 nM.
On to `O=C(O)CCCCc1nc2cc(C(=O)N3CCC[C@H](c4ccccc4)C3)ccc2cc1-c1ccccc1` [Compound 3K, 3-phenyl-7-[(3(R)-phenyl-1-piperidinyl)carbonyl]-2-quinolinepentanoic acid], for which the Ki lay within 2.1 to 20 nM.
Same read-out and setting: under `O=C(O)CCCCc1nc2cc(C(=O)N3CC(c4ccccc4)C3)ccc2cc1-c1ccccc1` [Compound 3L, 3-phenyl-7-[(3-phenyl-1-azetidinyl)carbonyl]-2-quinolinepentanoic acid] stands 0.1 to 2 nM; under `O=C(O)CCCCc1nc2cc(C(=O)N3CC[C@H](c4ccccc4)C3)ccc2cc1-c1ccccc1` [Compound 3i, 3-phenyl-7-[(3(R)-phenyl-1-pynolidinyl)carbonyl]-2-quinolinepentanoic acid], 2.1 to 20 nM; under `O=C(O)CCCCc1nc2cc(C(=O)NCc3cccc(Cl)c3)ccc2cc1-c1ccccc1` [Compound 4, 5-(7-(3-chlorobenzylcarbamoyl)-3-phenylquinolin-2-yl)pentanoic acid], 0.1 to 2 nM.
The compound `C[C@@H](NC(=O)c1ccc2cc(-c3ccccc3)c(CCCCC(=O)O)nc2c1)c1ccc(F)cc1` [Compound 4E, (R)-5-(7-(1-(4-fluorophenyl)ethylcarbamoyl)-3-phenylquinolin-2-yl)pentanoic acid] displayed a Ki of 0.1 to 2 nM.
Still for that read-out and setting: under `C[C@@H](NC(=O)c1ccc2nc(-c3ccc(F)cc3)c(CCCCC(=O)O)cc2c1)c1ccc(Cl)cc1` [Compound 5, 6-[[[1(R)-(4-chlorophenyl)ethyl]amino]carbonyl]-2-(4-fluorophenyl)-3-quinolinepentanoic acid] stands 2.1 to 20 nM.
With `O=C(O)CCCCc1cc2cc(C(=O)NC(c3ccccc3)c3ccccc3)ccc2nc1-c1ccc(F)cc1` [Compound 5AA, 5-(6-(benzhydrylcarbamoyl)-2-(4-fluorophenyl)quinolin-3-yl)pentanoic acid], the Ki lay in the range of 2.1 to 20 nM.
`C[C@@H](CNC(=O)c1ccc2nc(-c3ccc(F)cc3)c(CCCCC(=O)O)cc2c1)c1ccccc1` [Compound 5AB, (R)-5-(2-(4-fluorophenyl)-6-((2-phenylpropyl)carbamoyl)quinolin-3-yl)pentanoic acid] came in with a Ki of 2.1 to 20 nM.
For the compound `C[C@H](CNC(=O)c1ccc2nc(-c3ccc(F)cc3)c(CCCCC(=O)O)cc2c1)c1ccccc1` [Compound 5AC, (S)-5-(2-(4-fluorophenyl)-6-((2-phenylpropyl)carbamoyl)quinolin-3-yl)pentanoic acid], the Ki lay within 2.1 to 20 nM.
`C[C@@H](NC(=O)c1ccc2nc(-c3ccc(F)cc3)c(CCCCC(=O)O)cc2c1)c1ccc(F)cc1` [Compound 5D, 2-(4-fluorophenyl)-6-[[[1(R)-(4-fluorophenyl)ethyl]amino]carbonyl]-3-quinolinepentanoic acid] returned a Ki of 2.1 to 20 nM.
In turn, `O=C(O)CCCCc1cc2cc(C(=O)N[C@@H]3CCc4ccccc43)ccc2nc1-c1ccc(F)cc1` [Compound 5E, 6-[[(2,3-dihydro-1H-inden-1(R)-yl)amino]carbonyl]-2-(4-fluorophenyl)-3-quinolinepentanoic acid] had a Ki of 2.1 to 20 nM.
Compound `O=C(O)CCCCc1cc2cc(C(=O)N[C@@H]3CCc4ccc(F)cc43)ccc2nc1-c1ccc(F)cc1` [Compound 5F, 6-[[(6-fluoro-2,3-dihydro-1H-inden-1(R)-yl)amino]carbonyl]-2-(4-fluorophenyl)-3-quinolinepentanoic acid] registered a Ki of 2.1 to 20 nM.
With `O=C(O)CCCCc1cc2cc(C(=O)N[C@@H]3CCCc4ccccc43)ccc2nc1-c1ccc(F)cc1` [Compound 5G, 2-(4-fluorophenyl)-6-[[(1,2,3,4-tetrahydro-1(R)-naphthalenyl)amino]carbonyl]-3-quinolinepentanoic acid], the Ki lay within 2.1 to 20 nM.
The compound `O=C(O)CCCCc1cc2cc(C(=O)N[C@@H]3CCCc4ccc(F)cc43)ccc2nc1-c1ccc(F)cc1` [Compound 5H, 2-(4-fluorophenyl)-6-[[(7-fluoro-1,2,3,4-tetrahydro-1(R)-naphthalenyl)amino]carbonyl]-3-quinolinepentanoic acid] came in with a Ki of 2.1 to 20 nM.
Turning to `C[C@H](NC(=O)c1ccc2nc(-c3ccc(F)cc3)c(CCCCC(=O)O)cc2c1)c1ccc(F)cc1` [Compound 5J, 2-(4-fluorophenyl)-6-[[[1(S)-(4-fluorophenyl)ethyl]amino]carbonyl]-3-quinolinepentanoic acid], the Ki is 2.1 to 20 nM.
`O=C(O)CCCCc1cc2cc(C(=O)N[C@H]3CCc4ccccc43)ccc2nc1-c1ccc(F)cc1` [Compound 5K, 6-[[(2,3-dihydro-1H-inden-1(S)-yl)amino]carbonyl]-2-(4-fluorophenyl)-3-quinolinepentanoic acid] came in with a Ki of 2.1 to 20 nM.
On the same count and under the same terms, under `O=C(O)CCCCc1cc2cc(C(=O)N[C@H]3CCc4ccc(F)cc43)ccc2nc1-c1ccc(F)cc1` [Compound 5L, 6-[[(6-fluoro-2,3-dihydro-1H-inden-1(S)-yl)amino]carbonyl]-2-(4-fluorophenyl)-3-quinolinepentanoic acid] stands 2.1 to 20 nM.
For `O=C(O)CCCCc1cc2cc(C(=O)N[C@H]3CCCc4ccccc43)ccc2nc1-c1ccc(F)cc1` [Compound 5M, 2-(4-fluorophenyl)-6-[[(1,2,3,4-tetrahydro-1(S)-naphthalenyl)amino]carbonyl]-3-quinolinepentanoic acid], the Ki lay within 2.1 to 20 nM.
`O=C(O)CCCCc1cc2cc(C(=O)N[C@H]3CCCc4ccc(F)cc43)ccc2nc1-c1ccc(F)cc1` [Compound 5N, 2-(4-fluorophenyl)-6-[[(7-fluoro-1,2,3,4-tetrahydro-1(S)-naphthalenyl)amino]carbonyl]-3-quinolinepentanoic acid] displayed a Ki of 20.1 to 200 nM.
As to `O=C(O)CCCCc1cc2cc(C(=O)N[C@@H]3CCCc4cc(Cl)ccc43)ccc2nc1-c1ccc(F)cc1` [Compound 5P, 6-[[(6-chloro-1,2,3,4-tetrahydro-1(R)-naphthalenyl)amino]carbonyl]-2-(4-fluorophenyl)-3-quinolinepentanoic acid], the Ki fell in the range of 2.1 to 20 nM.
`N#Cc1ccc([C@@H](NC(=O)c2ccc3nc(-c4ccc(F)cc4)c(CCCCC(=O)O)cc3c2)C(F)(F)F)cc1` [Compound 5Q, 6-[[[1(R)-(4-cyanophenyl)-2,2,2-trifluoroethyl]amino]carbonyl]-2-(4-fluorophenyl)-3-quinolinepentanoic acid] displayed an inhibition constant (Ki) of 2.1 to 20 nM.
On to `O=C(O)CCCCc1cc2cc(C(=O)N[C@H]3CCc4cc(Cl)ccc43)ccc2nc1-c1ccc(F)cc1` [Compound 5R, 6-[[(5-chloro-2,3-dihydro-1H-inden-1(S)-yl)amino]carbonyl]-2-(4-fluorophenyl)-3-quinolinepentanoic acid], for which the inhibition constant Ki lay within 2.1 to 20 nM.

The same assay, now with this note: values in text.
With `O=C(O)CCCCc1nc2cc(C(=O)N3CC[C@@H](c4ccccc4)C3)ccc2cc1-c1ccccc1` [Compound 3H, 3-phenyl-7-[(3(S)-phenyl-1-pyrrolidinyl)carbonyl]-2-quinolinepentanoic acid], the Ki came out at 2.7 nM. This counts as single-digit nanomolar.
Consider `O=C(O)CCCCc1cc2cc(C(=O)N[C@@H]3CCc4ccc(F)cc43)ccc2nc1-c1ccc(F)cc1` [Compound 5F, 6-[[(6-fluoro-2,3-dihydro-1H-inden-1(R)-yl)amino]carbonyl]-2-(4-fluorophenyl)-3-quinolinepentanoic acid], for which affinity was put at a Ki of 13.6 nM.
Still for that read-out and setting: with `O=C(O)CCCCc1cc2cc(C(=O)N[C@@H]3CCCc4ccccc43)ccc2nc1-c1ccc(F)cc1` [Compound 5G, 2-(4-fluorophenyl)-6-[[(1,2,3,4-tetrahydro-1(R)-naphthalenyl)amino]carbonyl]-3-quinolinepentanoic acid] the figure was 2.6 nM; with `O=C(O)CCCCc1cc2cc(C(=O)N[C@H]3CCCc4ccc(F)cc43)ccc2nc1-c1ccc(F)cc1` [Compound 5N, 2-(4-fluorophenyl)-6-[[(7-fluoro-1,2,3,4-tetrahydro-1(S)-naphthalenyl)amino]carbonyl]-3-quinolinepentanoic acid], 25.5 nM.

Values taken from US9290453B2 (Merck Sharp & Dohme Corp., priority 2010, dated 2016).
